Experimental data taken from article PMC8119466, “A screen of FDA-approved drugs identifies inhibitors of protein tyrosine phosphatase 4A3 (PTP4A3 or PRL-3)” (Scientific Reports, 2021).
Where a name gives a salt, the structure may show the parent alone. Read-outs that look alike come from different tables or passages of the source.

Key:
Assay type in all cases: biochemical
recombinant PRL-2 = biological target: T1, recombinant PRL-2 (Homo sapiens, UniProt Q12974); test: In vitro phosphatase assay (DiFMUP hydrolysis), PRL-2;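 note: PRL-2 activity read as DiFMUP hydrolysis after 20 min at room temperature with drug, enzyme first pre-reduced at 4 °C for 20 min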
T1 construct: 6xHis (N, cleaved yes); made in house; host or cells: E. coli One Shot BL21 Star
T1 sequence (Q12974 1-167): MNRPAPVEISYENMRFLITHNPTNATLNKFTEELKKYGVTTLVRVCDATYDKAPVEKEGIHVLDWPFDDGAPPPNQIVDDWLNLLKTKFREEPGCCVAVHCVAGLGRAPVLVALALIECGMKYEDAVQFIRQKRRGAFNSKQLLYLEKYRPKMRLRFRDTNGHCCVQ

recombinant PRL-3 = biological target: T2, recombinant PRL-3 (Homo sapiens, UniProt O75365); test: In vitro phosphatase assay (DiFMUP hydrolysis), PRL-3
T2 construct: 6xHis (N, cleaved yes); made in house; host or cells: E. coli One Shot BL21 Star

recombinant PRL-1 = biological target: T3, recombinant PRL-1 (Homo sapiens, UniProt Q93096); test: In vitro phosphatase assay (DiFMUP hydrolysis), PRL-1
T3 construct: 6xHis (N, cleaved yes); made in house; host or cells: E. coli One Shot BL21 Star
T3 sequence (Q93096 1-173): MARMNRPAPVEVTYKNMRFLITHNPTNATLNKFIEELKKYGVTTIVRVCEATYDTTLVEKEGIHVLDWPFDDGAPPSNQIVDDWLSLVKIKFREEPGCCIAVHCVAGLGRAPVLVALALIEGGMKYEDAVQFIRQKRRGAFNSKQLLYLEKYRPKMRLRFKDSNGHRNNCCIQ

[1] = FDA-approved drug screen, compared to DMSO
[2] = FDA-approved drug screen, activity compared to DMSO

T2 sequence (O75365 whole entry): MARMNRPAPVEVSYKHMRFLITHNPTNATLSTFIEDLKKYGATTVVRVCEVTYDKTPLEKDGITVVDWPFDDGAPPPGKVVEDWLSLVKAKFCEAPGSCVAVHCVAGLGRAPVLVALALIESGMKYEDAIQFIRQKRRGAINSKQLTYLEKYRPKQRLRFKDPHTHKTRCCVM

| SMILES | % Phosphatase Activity (compared to DMSO) PRL-2 (recombinant PRL-2; [1]) [%] | % Phosphatase Activity (compared to DMSO) PRL-3 (recombinant PRL-3; [1]) [%] | % Phosphatase Activity (compared to DMSO) PRL-1 (recombinant PRL-1; [1]) [%] | other results |
| --- | --- | --- | --- | --- |
| CCCCCCCCCC(=O)N[C@@H](Cc1c[nH]c2ccccc12)C(=O)N[C@H](CC(N)=O)C(=O)N[C@@H](CC(=O)O)C(=O)N[C@@H]1C(=O)NCC(=O)N[C@@H](CCCN)C(=O)N[C@@H](CC(=O)O)C(=O)N[C@H](C)C(=O)N[C@@H](CC(=O)O)C(=O)NCC(=O)N[C@H](CO)C(=O)N[C@@H]([C@H](C)CC(=O)O)C(=O)N[C@@H](CC(=O)c2ccccc2N)C(=O)O[C@@H]1C [Daptomycin] | 75 | 95 | 90 | – |
| Cn1c(=O)c2c(ncn2CC2OCCO2)n(C)c1=O [Doxofylline] | 109 | 79 | 103 | – |
| CCc1cc(C(N)=S)ccn1 [Ethionamide] | – | – | – | % Phosphatase Activity (compared to DMSO) PRL-2 (recombinant PRL-2): 101%; % Phosphatase Activity (compared to DMSO) PRL-3 (recombinant PRL-3): 91%; % Phosphatase Activity (compared to DMSO) PRL-1 (recombinant PRL-1): 91% |
| O=C(O)c1ccc(-n2nc(-c3ccccc3O)nc2-c2ccccc2O)cc1 [Deferasirox] | 104 | 81 | 108 | – |
| CCc1cnn2c(NCc3ccc[n+]([O-])c3)cc(N3CCCC[C@H]3CCO)nc12 [Dinaciclib (SCH727965)] | – | – | – | % Phosphatase Activity (compared to DMSO) PRL-2 (recombinant PRL-2): 89%; % Phosphatase Activity (compared to DMSO) PRL-3 (recombinant PRL-3): 87%; % Phosphatase Activity (compared to DMSO) PRL-1 (recombinant PRL-1): 87% |
| CCC1(c2ccc(N)cc2)CCC(=O)NC1=O (stereo not drawn) [Aminoglutethimide] | 107 | 77 | 94 | – |
| Cc1cccc(Nc2ccccc2C(=O)O)c1C [Mefenamic Acid] | 107 | 82 | 98 | – |
| CN1CCN2c3ccccc3Cc3ccccc3C2C1 (stereo not drawn) [Mianserin HCl] | 99 | 59 | 95 | – |
| CCCCN1CCCC[C@H]1C(=O)Nc1c(C)cccc1C [Levobupivacaine HCl] | 108 | 72 | 91 | – |
| C#Cc1cccc(Nc2ncnc3cc(OCCOC)c(OCCOC)cc23)c1 [Erlotinib] | 110 | 123 | 113 | – |
| C[N+](C)(CCOc1ccccc1)Cc1ccccc1.O=C([O-])c1cc2ccccc2cc1O [Bephenium Hydroxynaphthoate] | 103 | 92 | 108 | – |
| COC(=O)N(C)c1c(N)nc(-c2nn(Cc3ccccc3F)c3ncccc23)nc1N [Riociguat (BAY 63-2521)] | 82 | 90 | 99 | – |
| CCC[C@H](N[C@@H](C)C(=O)N1[C@H](C(=O)O)C[C@@H]2CCCC[C@@H]21)C(=O)OCC [Perindopril Erbumine] | 84 | 96 | 88 | – |
| Nc1nc(O)c2ncn(COC(CO)CO)c2n1 [Ganciclovir] | 98 | 99 | 90 | – |
| O=C(c1ccc(F)c(F)c1Nc1ccc(I)cc1F)N1CC(O)([C@@H]2CCCCN2)C1 [Cobimetinib (GDC-0973, RG7420)] | 97 | 95 | 95 | – |
| COC(c1ccccc1)(c1ccccc1)[C@H](Oc1nc(C)cc(C)n1)C(=O)O [Ambrisentan] | 99 | 78 | 94 | – |
| NCCS(=O)(=O)O [Taurine] | – | – | – | % Phosphatase Activity (compared to DMSO) PRL-2 (recombinant PRL-2; [2]): 77%; % Phosphatase Activity (compared to DMSO) PRL-3 (recombinant PRL-3; [2]): 94%; % Phosphatase Activity (compared to DMSO) PRL-1 (recombinant PRL-1; [2]): 97% |
| CCN[C@@H]1C[C@H](N)[C@@H](O[C@H]2OC(CN)=CC[C@H]2N)[C@H](O)[C@H]1O[C@H]1OC[C@](C)(O)[C@H](NC)[C@H]1O.CCN[C@@H]1C[C@H](N)[C@@H](O[C@H]2OC(CN)=CC[C@H]2N)[C@H](O)[C@H]1O[C@H]1OC[C@](C)(O)[C@H](NC)[C@H]1O.O=S(=O)(O)O.O=S(=O)(O)O.O=S(=O)(O)O.O=S(=O)(O)O.O=S(=O)(O)O [Netilmicin Sulfate] | 110 | 111 | 86 | – |
| O=C(CCCN1CCN(c2ccccn2)CC1)c1ccc(F)cc1 [Azaperone] | 96 | 88 | 96 | – |

| SMILES | % Phosphatase Activity (compared to DMSO) PRL-2 (recombinant PRL-2; [1]) [%] | % Phosphatase Activity (compared to DMSO) PRL-3 (recombinant PRL-3; [1]) [%] | % Phosphatase Activity (compared to DMSO) PRL-1 (recombinant PRL-1; [1]) [%] | other results |
| --- | --- | --- | --- | --- |
| O=C(O[C@H]1C[C@H]2CC[C@@H](C1)[N+]21CCCC1)C(O)(c1ccccc1)c1ccccc1 [Trospium chloride] | – | – | – | % Phosphatase Activity (compared to DMSO) PRL-2 (recombinant PRL-2; [2]): 109%; % Phosphatase Activity (compared to DMSO) PRL-3 (recombinant PRL-3; [2]): 83%; % Phosphatase Activity (compared to DMSO) PRL-1 (recombinant PRL-1; [2]): 109% |
| C[N+](C)(C)CCCCCC[N+](C)(C)C [Hexamethonium Bromide] | 89 | 84 | 87 | – |
| CNC(=O)c1ccc(N2C(=S)N(c3ccc(C#N)c(C(F)(F)F)c3)C(=O)C2(C)C)cc1F [Enzalutamide (MDV3100)] | 89 | 71 | 90 | – |
| CCOC(=O)C1=C(COCCN)NC(C)=C(C(=O)OC)C1c1ccccc1Cl.O=S(=O)(O)c1ccccc1 (stereo not drawn) [Amlodipine besylate (Norvasc)] | 174 | 168 | 152 | – |
| Cc1ccc2c(Cl)cc(Cl)c(O)c2n1 [Chlorquinaldol] | 102 | 71 | 88 | – |
| CCOC(=O)C1=C(C)NC(C)=C(C(=O)OC)C1c1cccc(Cl)c1Cl (stereo not drawn) [Felodipine] | 227 | 132 | 161 | – |
| Oc1c(Cl)cc(Cl)c(Cl)c1Cc1c(O)c(Cl)cc(Cl)c1Cl [Hexachlorophene, reference compound] | -9 | -4 | -2.83 | IC50 (recombinant PRL-2; 2.5 µM protein, DiFMUP at KM, read-out: Calculated IC50, PRL-2 phosphatase activity): 35 ± 10 µM; IC50 (recombinant PRL-3; 2.5 µM protein, DiFMUP at KM, read-out: Calculated IC50, PRL-3 phosphatase activity): 13 ± 1 µM; IC50 (recombinant PRL-1; 2.5 µM protein, DiFMUP at KM, read-out: Calculated IC50, PRL-1 phosphatase activity): 31 ± 4 µM |
| CN(C)CCC[C@@]1(c2ccc(F)cc2)OCc2cc(C#N)ccc21 [Escitalopram Oxalate] | 117 | 67 | 89 | – |
| CCN(CC)C(=O)c1cccc(C)c1 [DEET] | 77 | 85 | 95 | – |
| NC[C@H]1CC[C@H](C(=O)O)CC1 [Tranexamic Acid] | – | – | – | % Phosphatase Activity (compared to DMSO) PRL-2 (recombinant PRL-2; [2]): 89%; % Phosphatase Activity (compared to DMSO) PRL-3 (recombinant PRL-3; [2]): 96%; % Phosphatase Activity (compared to DMSO) PRL-1 (recombinant PRL-1; [2]): 92% |
| COc1ccccc1OCC(O)CO (stereo not drawn) [Guaifenesin] | 92 | 100 | 102 | – |
| O=C(O)Cc1ccccc1Nc1c(Cl)cccc1Cl [Diclofenac Sodium] | 115 | 92 | 100 | – |
| O=C(CCCCCCC(=O)Nc1ccccc1)NO [Vorinostat (SAHA, MK0683)] | – | – | – | % Phosphatase Activity (compared to DMSO) PRL-2 (recombinant PRL-2; [2]): 89%; % Phosphatase Activity (compared to DMSO) PRL-3 (recombinant PRL-3; [2]): 92%; % Phosphatase Activity (compared to DMSO) PRL-1 (recombinant PRL-1; [2]): 98% |
| Cc1c(Cl)cccc1Nc1ccccc1C(=O)O [Tolfenamic Acid] | – | – | – | % Phosphatase Activity (compared to DMSO) PRL-2 (recombinant PRL-2; [2]): 86%; % Phosphatase Activity (compared to DMSO) PRL-3 (recombinant PRL-3; [2]): 86%; % Phosphatase Activity (compared to DMSO) PRL-1 (recombinant PRL-1; [2]): 97% |
| CCC1(C)CC(=O)NC1=O (stereo not drawn) [Ethosuximide] | 104 | 79 | 95 | – |
| OC1(c2ccc(Cl)c(C(F)(F)F)c2)CCN(CCCC(c2ccc(F)cc2)c2ccc(F)cc2)CC1 [Penfluridol] | 128 | 89 | 100 | – |
| CN1CCC(=C2c3ccccc3CC(=O)c3sccc32)CC1 [Ketotifen Fumarate] | 97 | 89 | 93 | – |
| CC(=O)OCC(CCn1cnc2cnc(N)nc21)COC(C)=O [Famciclovir] | 115 | 79 | 107 | – |
| COc1cc2nc(N3CCN(C(=O)c4ccco4)CC3)nc(N)c2cc1OC [Prazosin HCl] | 435 | 263 | 460 | – |
